# According to US20230053524A1, “FUNGICIDES TO PREVENT AND CONTROL FUNGAL PATHOGENS” (priority 2020, published 2023):
# pEC50: −log10 of the molar value.
# Tests used:
# Format in all cases: cell-based
# Conditions in all cases: 168 h, read-out: ED50
# [1] = test system: Alternaria radicina; assay: In vitro bioassay, mycelia growth on PDA (Example 1)
# [2] = test system: Fusarium graminearum; assay: microbe, parasite or virus in culture
# [3] = test system: Plectosphaerella cucumerina; assay: In vitro bioassay, mycelia growth on PDA (Example 1)
SMILES,pEC50 [1],pEC50 [2],pEC50 [3]
"CS(=O)(=O)CCCCCCCCN=C=S [0/100, 1-Isothiocyanato-8-(methylsulfonyl)-octane]",3.12,3.27,3.32
"C[S+]([O-])CCCCCCCCN=C=S (stereo not drawn) [100/0, 1-Isothiocyanato-8-(methylsulfinyl)-octane]",3.64,3.48,3.51
